Test results: US20220160703A1, “TUMOR-SELECTIVE COMBINATION THERAPY” (The Board of Regents of The University of Texas System, priority 2019, published 2022)

Legend:
NQO1 = NQO1 (Homo sapiens, UniProt P15559); conditions: in ~2 min; cited from earlier work
A549 tumor = test: A549 xenograft in immune-reconstituted C57BL/6 Rag1−/− mice; type: in vivo; conditions: β-lap 0.2 mg i.t. four times
Protocol: FIGS. 2A-F. β-Lap's antitumor effect is CD8^+ T cell dependent. (FIG. 2A) MC38 cells were subcutaneously transplanted into C57BL/6 WT (n=5-6/group) and Rag1 KO mice (n=5/group), respectively. Tumor bearing mice were treated with β-lap (0.3 mg, i.t.) every other day for four times. Numbers of tumor free mice after treatment were shown. (FIG. 2B) MC38 tumor bearing C57BL/6 mice (n=5/group) were treated with β-lap (0.3 mg, i.t.) every other day for four times. For CD8^+ T cell depletion, 200 μg of anti-CD8 antibodies were intraperitoneally injected four times at three days interval during the treatment. (FIG. 2C) TC-1 tumor bearing C57BL/6 mice (n=4-5/group) were treated with β-lap (0.1 mg, i.t.) for four times with or without anti-CD8 antibodies. (FIG. 2D) Naïve (n=5/group) and β-lap cured MC38 tumor free (n=7/group) C57BL/6 mice were rechallenged subcutaneously with 3×10^6 MC38 cells on the opposite site from the primary tumor 30 days after complete rejection, and tumor growth curve was monitored. […] Tumor growth was measured twice a week. Data are shown as mean±SEM from three independent experiments. **P<0.01, ***P<0.001, ****P<0.0001 determined by two-way ANOVA.
Immune reconstituted mouse models. […] Tumor volumes were measured at least twice weekly.

CD8 T cells = test: Direct effect on CD8 T cells (apoptosis, proliferation, IFNγ); type: cell-based, mice; conditions: tumor lethal dose of β-lap
Protocol: FIGS. 23A-D. IB-DNQ-mediated antitumor effect influences tumor microenvironment. 6×10^5 MC38 cells were subcutaneously transplanted into C57BL/6 mice (n=3/group). Tumor-bearing mice were treated with IB-DNQ (12 mg/kg, i.t.) or vehicle every other day for four times after tumor volumes reached to 50 mm^3. Tumors were collected 24 h later after the last IB-DNQ injection. (FIG. 23A) Flow cytometry analysis of tumor-infiltrating immune cells from vehicle and IB-DNQ treated tumors. (FIG. 23B) Quantification of immune populations from vehicle and IB-DNQ treated tumors. (FIG. 23C) T cell proliferation in the presence/absence of IB-DNQ. CFSE labeled splenocytes were treated with lethal dose IB-DNQ for 4 h followed by washing and stimulation with anti-CD3 (1 μg/ml) and anti-CD28 (2 μg/ml) for 48 h, proliferative CD8 T cells were then analyzed by flow cytometry assay. (FIG. 23D) Effect of IB-DNQ on T cells. […] 24 h later, cell death was analyzed by flow cytometry. […]
I3-Lap-induced-antitumor effect depends on dendritic cell-mediated T cell cross-priming. […] To rule out of direct effect of β-lap on CD8 T cells, the inventors evaluated the expression of NQO1 on CD8 T cells and the effect of β-lap on CD8 T cell survival, proliferation and function. […] IFNγ secretion was measured to evaluate the capability of DCs to prime the antigen specific T cells.

Chain of NQO1 (P15559 whole entry, species assumed): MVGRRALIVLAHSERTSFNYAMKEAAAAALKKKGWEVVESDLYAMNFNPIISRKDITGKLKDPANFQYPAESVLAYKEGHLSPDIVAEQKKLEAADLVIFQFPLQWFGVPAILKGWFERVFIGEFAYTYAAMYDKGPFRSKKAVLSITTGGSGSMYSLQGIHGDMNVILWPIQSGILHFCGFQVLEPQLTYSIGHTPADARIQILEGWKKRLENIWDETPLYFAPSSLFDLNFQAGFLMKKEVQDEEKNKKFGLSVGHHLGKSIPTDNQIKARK

## CC1(C)CCC2=C(O1)c1ccccc1C(=O)C2=O [β-lap, β-lapachone]
NQO1
  NAD(P)H consumed by one mole of drug: ~60 mol
  superoxide generated by one mole of drug: ~120 mol
A549 tumor; no OT-1 LN cells
  tumor growth without T cell transfer: only partially inhibited
A549 tumor; with 2×10^6 OT-1 LN cells
  tumors completely rejected: 50%
CD8 T cells
  CD8 T cell apoptosis, anti-CD3/CD28 stimulated proliferation and IFNγ production: no effect
